Like-named read-outs stand apart in the source and are kept apart here.
Tests used:
[1] = type: physicochemical
Description: Before obtaining dissolution data, a calibration curve for Indomethacin (IMC) was established (Fig. 2). A double-beam T80 UV-vis spectrometer (Japan) and a mixture of ethanol and distilled deionized water were employed to dissolve a specific amount of IMC to generate the calibration curve. Numerous methods were utilized to determine the experimental solubility data, encompassing the shake-flask method. […] Then, the excess amounts of IMC were added to glass vials holding a particular quantity of water and PILs, which were stirred and kept for 3 days in a water bath thermostat until equilibrium was reached. The temperature was adjusted with a precision of 0.01 K using an ED water bath thermostat (Julabo Co., Germany). After 3 days, the liquid and solid phases were separated employing a Hettich D-7200 centrifuge. At the next step, the liquid phase was appropriately diluted with an ethanol + water solution after filtering the saturated solutions through a 0.22 μm PTFE filter. The concentration of IMC in the solutions was measured by utilizing the calibration curve and a T80 UV-vis spectrometer (Japan). The mole fraction of IMC (x1) in the aqueous solutions containing PILs was determined, for the IMC + water, IMC + water combination, and IMC + PILs systems using the Eq. 1 [25, 26]:1 x1=[…]3, where Wi and Mi, respectively, indicate the weight fractions and molar mass weight fractions of each system component (i).

[2] = Apparent thermodynamic functions of IMC dissolution (van't Hoff and Gibbs equations); type: physicochemical
Text: The van’t Hoff and Gibbs equations were employed for calculating the Thm = 305.55 K (the mean harmonic temperature), which was derived by considering into calculate temperatures (298.15 to 313.15 K). The thermodynamic parameters of dissolution have been evaluated by employing the apparent thermodynamic functions. […] On the other hand, the van’t Hoff plot, which is a plot of lnx1 versus 1/T-1/Thm , can be utilized to figure out:14 ΔHsoln∘=-R∂lnx1/∂1/T-1/ThmP, 15 ΔGsoln∘=-RThm×intercept.
In this manner, the values of ΔHsoln∘ and ΔGsoln∘ have been evaluated utilizing the slope and intercept of Eqs. 14 and 15. Furthermore, the following equation [47, 48] was applied to evaluate the standard molar entropy of dissolution, ΔSsoln∘ [49]:16 ΔSsoln∘=ΔHsoln∘-ΔGsoln∘/Thm.
Finally, in the IMC dissolution process, Eqs.

[3] = XRD of residual solids from solubility measurement; type: physicochemical; conditions: residual solids from saturated aqueous PIL solutions vs raw IMC
Text: The XRD diffractograms of raw IMC crystals together with residuals crystals sampled from solubility measurement are depicted in Figure S4. (supporting information). It should be noted that quantitative analysis of phases in samples with preferential orientation or texture is not possible using traditional methods such as direct comparison. […] First, the stability of IMC in the presence of PILs was investigated. The analysis of the bottom phase(s) after the solubility experiments have been presented. There are different type of factors affecting the peak intensity of XRD. These type of factors are listed as: • The nature of the sample under test (single-phase or multiphase of the sample). • Powder samples have less peak intensity than bulk samples. (Due to the effect of absorption factor). • Grain size: the larger the grain size, the higher the peak intensity. For example, considering samples with the same chemical composition, which have been annealed at different times of heat treatment, a sample will have a higher peak intensity with a longer heat treatment time (longer annealing time = larger grain size). It should be noted that the smaller the grain size, the higher the […] is the amorphous part of the material, and as a result the background scatter in the diffraction pattern will increase and the peak intensity would decrease.

[4] = cited from earlier work
HT29 cell line [5] = test: MTT assay cytotoxicity of PILs; conditions: for IC50: MTT, 24 h exposure
Description: (§1) Pastor Institute of Iran generously provided the human colon adenocarcinoma cell line HT29. The cell lines were cultured in RPMI’s medium supplemented with 10% fetal bovine serum (FBS) and Culture medium containing FBS. The cell cultures were incubated at 37 °C in a humidified environment of 5% carbon dioxide—CO2.
(§2) The colorimetric MTT assay was used to assess the cytotoxic activity of PILs (Twentyman and Luscombe 1987). HT29 cells were seeded in 96-well plates and allowed to conform for the first step. The cells were then incubated for 24 h at 37 °C in 5% CO2 in a total of six concentrations (3–150 µg mL^−1) of the studied compounds diluted in RPMI medium (previously sterilized with a 0.22 m syringe filter). After 24 h of exposure, each well was filled with 50 µL of MTT solution (3 (4,5-dimethylthiazol-2-yl)-2,5-diphenyltetrazolium bromide (MTT) from Sigma-Aldrich) (2 mg. mL in PBS, pH 7.2). To dissolve the formazan crystals, the medium was substituted with 150 µL of dimethyl sulfoxide (DMSO) after 4 h of incubation.
(§3) The plate was shaking for around 1 h while being held out of direct sunlight. Cell viability was measured through the optical density of reduced MTT at 570–630 nm using a microplate reader (Synergy HT from BioTeK Instruments Inc., Winooski, VT, USA). The percentage of viable cells was calculated as the ratio between the absorbance of treated and control cells. Similarly, IC50 was estimated using a non-linear regression, logistic equation to determine the chemical concentration that causes a 50% reduction in cell viability [27].

HT29 cell line [6] = tested on: HT29 cell line
Description: as §1, §2, §3

[7] = aq. MEAA, w3 = 0.0000, Thm = 305.55 K
[8] = aq. MEAA, w3 = 0.0200, Thm = 305.55 K
[9] = aq. MEAA, w3 = 0.0500, Thm = 305.55 K
[10] = aq. MEAA, w3 = 0.0700, Thm = 305.55 K
[11] = aq. MEAA, w3 = 0.1000, Thm = 305.55 K
[12] = aq. MEAA, w3 = 0.1500, Thm = 305.55 K
[13] = aq. MEAA, w3 = 0.2000, Thm = 305.55 K
[14] = aq. MEAL, w3 = 0.0000, Thm = 305.55 K
[15] = aq. MEAL, w3 = 0.0200, Thm = 305.55 K
[16] = aq. MEAL, w3 = 0.0500, Thm = 305.55 K
[17] = aq. MEAL, w3 = 0.0700, Thm = 305.55 K
[18] = aq. MEAL, w3 = 0.1000, Thm = 305.55 K
[19] = aq. MEAL, w3 = 0.1500, Thm = 305.55 K
[20] = aq. MEAL, w3 = 0.2000, Thm = 305.55 K
[21] = aq. MEAP, w3 = 0.0000, Thm = 305.55 K
[22] = aq. MEAP, w3 = 0.0200, Thm = 305.55 K
[23] = aq. MEAP, w3 = 0.0500, Thm = 305.55 K
[24] = aq. MEAP, w3 = 0.0700, Thm = 305.55 K
[25] = aq. MEAP, w3 = 0.1000, Thm = 305.55 K
[26] = aq. MEAP, w3 = 0.1500, Thm = 305.55 K
[27] = aq. MEAP, w3 = 0.2000, Thm = 305.55 K

COc1ccc2c(c1)c(CC(=O)O)c(C)n2C(=O)c1ccc(Cl)cc1 [Indomethacin]
IMC solubility in MEAL PIL relative to water [1]: more than 200 times
increase of IMC solubility in PILs compared to pure water [1]: ~200 times
solubility (mole fraction) [1]: 20.71 × 10^−5 mole fraction
ΔGsoln∘ [2, 7]: 34.58 kJ/mol
ΔHsoln∘ [2, 7]: 25.32 kJ/mol
ξH [2, 7]: 73.23%
ξTS [2, 7]: 26.77%
ΔGsoln∘ [2, 8]: 28.47 kJ/mol
ΔHsoln∘ [2, 8]: 18.18 kJ/mol
ξH [2, 8]: 63.86%
ξTS [2, 8]: 36.14%
ΔGsoln∘ [2, 9]: 27.91 kJ/mol
ΔHsoln∘ [2, 9]: 15.32 kJ/mol
ξH [2, 9]: 54.90%
ξTS [2, 9]: 45.10%
ΔGsoln∘ [2, 10]: 27.63 kJ/mol
ΔHsoln∘ [2, 10]: 8.90 kJ/mol
ξH [2, 10]: 32.21%
ξTS [2, 10]: 67.79%
ΔGsoln∘ [2, 11]: 27.45 kJ/mol
ΔHsoln∘ [2, 11]: 10.67 kJ/mol
ξH [2, 11]: 38.86%
ξTS [2, 11]: 61.14%
ΔGsoln∘ [2, 12]: 26.87 kJ/mol
ΔHsoln∘ [2, 12]: 19.13 kJ/mol
ξH [2, 12]: 71.17%
ξTS [2, 12]: 28.83%
ΔGsoln∘ [2, 13]: 26.17 kJ/mol
ΔHsoln∘ [2, 13]: 10.61 kJ/mol
ξH [2, 13]: 40.54%
ξTS [2, 13]: 59.46%
ΔGsoln∘ [2, 14]: 34.58 kJ/mol
ΔHsoln∘ [2, 14]: 25.32 kJ/mol
ξH [2, 14]: 73.23%
ξTS [2, 14]: 26.77%
ΔGsoln∘ [2, 15]: 25.22 kJ/mol
ΔHsoln∘ [2, 15]: 22.10 kJ/mol
ξH [2, 15]: 87.61%
ξTS [2, 15]: 12.39%
TMΔSsoln∘ [2, 16]: 2.50 kJ/mol
ΔGsoln∘ [2, 16]: 24.04 kJ/mol
ΔHsoln∘ [2, 16]: 26.54 kJ/mol
ξH [2, 16]: 91.39%
ξTS [2, 16]: 8.61%
TMΔSsoln∘ [2, 17]: 10.28 kJ/mol
ΔGsoln∘ [2, 17]: 23.57 kJ/mol
ΔHsoln∘ [2, 17]: 33.85 kJ/mol
ξH [2, 17]: 76.70%
ξTS [2, 17]: 23.30%
TMΔSsoln∘ [2, 18]: 3.81 kJ/mol
ΔGsoln∘ [2, 18]: 22.89 kJ/mol
ΔHsoln∘ [2, 18]: 26.70 kJ/mol
ξH [2, 18]: 87.50%
ξTS [2, 18]: 12.50%
TMΔSsoln∘ [2, 19]: 8.36 kJ/mol
ΔGsoln∘ [2, 19]: 21.79 kJ/mol
ΔHsoln∘ [2, 19]: 30.15 kJ/mol
ξH [2, 19]: 78.28%
ξTS [2, 19]: 21.72%
TMΔSsoln∘ [2, 20]: 2.57 kJ/mol
ΔGsoln∘ [2, 20]: 21.07 kJ/mol
ΔHsoln∘ [2, 20]: 23.65 kJ/mol
ξH [2, 20]: 90.18%
ξTS [2, 20]: 9.82%
ΔGsoln∘ [2, 21]: 34.58 kJ/mol
ΔHsoln∘ [2, 21]: 25.32 kJ/mol
ξH [2, 21]: 73.23%
ξTS [2, 21]: 26.77%
TMΔSsoln∘ [2, 22]: 3.14 kJ/mol
ΔGsoln∘ [2, 22]: 29.14 kJ/mol
ΔHsoln∘ [2, 22]: 32.28 kJ/mol
ξH [2, 22]: 91.14%
ξTS [2, 22]: 8.86%
TMΔSsoln∘ [2, 23]: 7.99 kJ/mol
ΔGsoln∘ [2, 23]: 28.20 kJ/mol
ΔHsoln∘ [2, 23]: 36.19 kJ/mol
ξH [2, 23]: 81.92%
ξTS [2, 23]: 18.08%
TMΔSsoln∘ [2, 24]: 31.30 kJ/mol
ΔGsoln∘ [2, 24]: 27.68 kJ/mol
ΔHsoln∘ [2, 24]: 58.98 kJ/mol
ξH [2, 24]: 65.33%
ξTS [2, 24]: 34.67%
TMΔSsoln∘ [2, 25]: 49.74 kJ/mol
ΔGsoln∘ [2, 25]: 27.01 kJ/mol
ΔHsoln∘ [2, 25]: 76.75 kJ/mol
ξH [2, 25]: 60.68%
ξTS [2, 25]: 39.32%
TMΔSsoln∘ [2, 26]: 58.61 kJ/mol
ΔGsoln∘ [2, 26]: 25.38 kJ/mol
ΔHsoln∘ [2, 26]: 83.99 kJ/mol
ξH [2, 26]: 58.90%
ξTS [2, 26]: 41.10%
TMΔSsoln∘ [2, 27]: 38.42 kJ/mol
ΔGsoln∘ [2, 27]: 24.21 kJ/mol
ΔHsoln∘ [2, 27]: 62.63 kJ/mol
ξH [2, 27]: 61.98%
ξTS [2, 27]: 38.02%
solid phase stability in solubility measurements (XRD) [3]: no phase transformation
solubility (mole fraction) ([4]; ethanol/water (wETOH = 0.2), 298.15 K, ref Peña et al.): 1.13 × 10^−5 mole fraction
solubility (mole fraction) ([4]; propylene glycol/water, 0.4 weight fraction propylene glycol, 303.15 K, ref Holguín et al. 52): 7.61 × 10^–6 mole fraction

CCC(=O)O.NCCO [MEAP, 2-Hydroxyethylammonium propionate]
cytotoxic effect category (HT29 cell line [5]): moderate
IC50 (HT29 cell line [5]): 67.19 ± 0.049 µg/mL

CC(=O)O.NCCO [MEAA, 2-Hydroxyethylammonium acetate]
cytotoxic effect category (HT29 cell line [6]): moderate
IC50 (HT29 cell line [5]): 26.40 ± 0.006 µg/mL

CC(O)C(=O)O.NCCO (centres unmarked) [MEAL, 2-Hydroxyethylammonium lactate]
cytotoxic effect category (HT29 cell line [6]): moderate
IC50 (HT29 cell line [5]): 79.23 ± 0.001 µg/mL
